Our source for the IC50 values is ChEMBL document CHEMBL1134709 (Bioorg Med Chem Lett, 2001).

This assay has as its target T1, Protein Tat (Human immunodeficiency virus type 1 group M subtype B (isolate PCV12)(HIV-1), UniProt P04326).
T1 sequence (P04326 whole entry): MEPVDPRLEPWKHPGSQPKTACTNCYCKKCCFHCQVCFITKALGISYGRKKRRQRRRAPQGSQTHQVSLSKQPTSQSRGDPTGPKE
The assay can be described thus: Inhibition of Tat peptide binding to HIV-1 TAR RNA. Also noted: species or system Human immunodeficiency virus type 1 (CLONE 12).

One may read the IC50 as the point on the concentration scale where inhibition reaches its midpoint. A high value points to weaker potency. As to `N=C(N)NCCCC(NC(=O)c1ccc2ccc3cccc4ccc1c2c34)C(=O)NCC1OC(OC2C(N)CC(N)C(O)C2O)C(N)C(O)C1O` (centres undefined), the IC50 was determined as 28 nM. As for `N=C(N)NCCCC(N)C(=O)NCC1O[C@@H](OC2C(N)C[C@@H](N)[C@@H](O)[C@H]2O)[C@@H](N)[C@@H](O)C1O` (some centres undefined), the IC50 is 600 nM. The value for `NC[C@H]1OC(O[C@H]2[C@H](O)C(O)[C@H](N)C[C@@H]2N)C(N)[C@@H](O)[C@@H]1O` (single isomer, unassigned) [NEAMINE] was 28000 nM; that for `NC1C[C@@H](N)[C@@H](O)[C@@H](O)C1O[C@@H]1OC(CNC(=O)c2ccc3ccc4cccc5ccc2c3c45)C(O)[C@H](O)[C@@H]1N` (some centres undefined) was 1700 nM.
